Laboratory results: patent US6787518B1, “Therapeutics of osteoarthritis and inflammatory joint disease” (priority 1995, dated 2004)

Columns and labels:
[1] = test system: mRNA of type II collagen; test: Expression of mRNA of type II collagen in cultured chondrocytes (hybridization with 32P cDNA probe); assay type: cell-based, rabbit; conditions: 10^−8 or 10^−7 M PTHrP, last 6 days of 30-day cultivation; FIG. 9
Procedure: (§1) As in Example 1, grown chondrocytes were separated from the subchondral bone to bone transition area of rabbits 4 weeks old from birth by the method of Shimomura et al. (Shimomura, Y. et a., Calcif. Tissue Res. 19, 179-187, 1975). The separated chondrocytes were suspended in an Eagle's minimum essential medium (MEM) containing 10% fetal bovine serum and 50 μg/mL of ascorbic acid and seeded on a 3.5-cm Petri dish coated with type I collagen, each well containing 5,000 cells. Following 30-day cultivation, 10^−8 and 10^−7 M of PTHrP was brought into action for the last 6 days. RNA was prepared from the cultured cells by the CsTFA method (Smale and Sasse, Anal. Biochem. 203, 352-356. 1992), separated by electrophoresis and thereafter transferred onto a membrane. The membrane onto which the RNA had been transferred was hybridized with a ^32P labelled cDNA probe for type X and II collagens.

[2] = test system: grown chondrocytes; test: Cartilage matrix proteoglycan synthesis (incorporation of labelled sulfuric acid) in cultured chondrocytes; assay type: cell-based, rabbit; conditions: FIG. 2
Procedure: As in Example 1, grown chondrocytes were separated from the subchondral bone to bone transition area of rabbits 4 weeks old from birth by the method of Shimomura et al. (Shimomura, Y. et al., Calcif. Tissue Res. 19, 179-187, 1975). The separated chondrocytes were suspended in an Eagle's minimum essential medium (MEM) containing 10% fetal bovine serum and 50 μg/mL of ascorbic acid and seeded in a 96-well culture plate at a concentration of 5,000 cells in each well. When the cells became confluent, PTHrP was added and, one day later, 1 μCi of […] was added per well, followed by 17-h cultivation. The amount of cartilage matrix produced in the supernatant of the culture solution was measured by the method of Kato et al. (Kato, Y. et al., Endocrinology 122, 1991-1997, 1988). Briefly, the quantity of […] incorporated into proteoglycans was measured.

[3] = test system: chondrocytes; test: Alkaline phosphatase (ALP) activity of chondrocytes cultured in a centrifugal tube; assay type: cell-based, rabbit
From the text: (§2) In the following Examples, grown chondrocytes were separated from the subchondral bone to bone transition area of rabbits 4 weeks old from birth by the method of Shimomura et al. (Shimomura, Y. et al., Calcif. Tissue Res. 19, 179-187, 1975). The separated chondrocytes were cultivated by the method of Iwamoto et al. (Iwamoto, M. et al. Dev. Biol. 136 500-507, 1989) and the method of Kato et al. (Kato, Y. et al. Endocrinology, 127, 114-118, 1990). Stated specifically, the separated chondrocytes were suspended in an Eagle's minimum essential medium (MEM) to give a concentration of 8×10^4 cells/mL in the presence of 10% fetal bovine serum (FBS) and 50 μg/mL of ascorbic acid and then seeded in 1-mL portions into 15-mL plastic centrifugal tubes (Corning). After 5-min centrifugation (at 1,500 rpm), the cells were cultivated in a CO2 gas incubator having a temperature setting of 37° C. Starting on the 6th day of the cultivation, medium changes were made every other day. The presence of PTHrP receptors in the chondrocytes was verified by SDS gel electrophoresis. Stated specifically, the chondrocytes cultured for 14 days were homogenized and incubated with ^125I labelled PTHrP for 5 h. The PTHrP binding to the receptors was crosslinked with DSS, solubilized with a SDS buffer solution and electrophoresed through a SDS gel. After the electrophoresis, autoradiography was performed in the usual manner. As a control, excess PTHrP, was added to prevent the binding of ^125I labelled PTHrP to the receptors and the unbound PTHrP was electrophoresed by the same procedure and subjected to autoradiography.
As in Example 1, chondrocytes were cultured in a centrifugal tube. On the 8th day of the cultivation, 10^−7 M of PTHrP was added and the cultivation was continued for a period of up to 28 days. On the 21st day of the cultivation, a PTHrP free group was set and compared with the PTHrP treated group. In another experiment, PTHrP was added in varying amounts from […] and the dose-response relationship with the alkaline phosphatase activity (ALP activity) was verified. For the measurement of ALP activity, chondrocyte clusters were homogenized in 0.2% Triton X-100, centrifuged at 12,000 xg for 15 min and the supernatant was assayed by the method of Bessey et al. (Bessey O. A. et al., J. Biol. Chem. 164, 321-329, 1946). To investigate the progress of calcification, 0.5 μCi of ^45Ca was added at suitable intervals and its incorporation into the chondrocytes after 24 h, as well as the Ca level on the 28th day of the cultivation were measured.

[4] = test system: chondrocytes; test: Calcification of chondrocytes (45Ca incorporation, Ca level) in centrifugal tube culture; assay type: cell-based, rabbit
From the text: as §2
As in Example 1, chondrocytes were cultured in a centrifugal tube. On the 8th day of the cultivation, 10^−7 M of PTHrP was added and the cultivation was continued for a period of up to 28 days. […] To investigate the progress of calcification, 0.5 μCi of ^45Ca was added at suitable intervals and its incorporation into the chondrocytes after 24 h, as well as the Ca level on the 28th day of the cultivation were measured.

[5] = test system: chondrocytes; test: Growth of chondrocytes cultured in a centrifugal tube (DNA content); assay type: cell-based, rabbit; conditions: 10^−7 M added on 8th day, up to 28 days; 10^−10 to 10^−7 M, 21st day; FIG. 3, 4
From the text: In the following Examples, grown chondrocytes were separated from the subchondral bone to bone transition area of rabbits 4 weeks old from birth by the method of Shimomura et al. (Shimomura, Y. et al., Calcif. Tissue Res. 19, 179-187, 1975). The separated chondrocytes were cultivated by the method of Iwamoto et al. (Iwamoto, M. et al. Dev. Biol. 136 500-507, 1989) and the method of Kato et al. (Kato, Y. et al. Endocrinology, 127, 114-118, 1990). Stated specifically, the separated chondrocytes were suspended in an Eagle's minimum essential medium (MEM) to give a concentration of 8×10^4 cells/mL in the presence of 10% fetal bovine serum (FBS) and 50 μg/mL of ascorbic acid and then seeded in 1-mL portions into 15-mL plastic centrifugal tubes (Corning). After 5-min centrifugation (at 1,500 rpm), the cells were cultivated in a CO2 gas incubator having a temperature setting of 37° C. Starting on the 6th day of the cultivation, medium changes were made every other day. […]
As in Example 1, chondrocytes were cultured in a centrifugal tube. […] After the cultivation, the cells were solubilized at appropriate intervals and the time-dependent changes in DNA content were measured. In another experiment, PTHrP was added at varying concentrations from 10^−10 to 10^−7 M and the DNA content on the 21st day of the cultivation was measured.

[6] = test system: mRNA of type X collagen; test: Expression of mRNA of type X collagen in cultured chondrocytes (hybridization with 32P cDNA probe); assay type: cell-based, rabbit; conditions: 10^−8 and 10^−7 M PTHrP, last 6 days of 30-day cultivation; FIG. 9
Procedure: as §1

[7] = molecular target: T1, PTHrP receptors (Oryctolagus cuniculus, UniProt G1T397); test: Binding of 125I labelled PTHrP to receptors in chondrocyte homogenate (DSS crosslinking, SDS gel electrophoresis, autoradiography); set-up: species or system rabbit; conditions: addition of excess PTHrP; chondrocytes cultured 14 days, homogenized; FIG. 1
T1 construct: the chondrocytes cultured for 14 days were homogenized and incubated with ^125I labelled PTHrP for 5 h; endogenous in cells; host or cells: primary rabbit growth-plate chondrocytes, 14-day pellet culture, homogenized
T1 sequence (G1T397 29-589): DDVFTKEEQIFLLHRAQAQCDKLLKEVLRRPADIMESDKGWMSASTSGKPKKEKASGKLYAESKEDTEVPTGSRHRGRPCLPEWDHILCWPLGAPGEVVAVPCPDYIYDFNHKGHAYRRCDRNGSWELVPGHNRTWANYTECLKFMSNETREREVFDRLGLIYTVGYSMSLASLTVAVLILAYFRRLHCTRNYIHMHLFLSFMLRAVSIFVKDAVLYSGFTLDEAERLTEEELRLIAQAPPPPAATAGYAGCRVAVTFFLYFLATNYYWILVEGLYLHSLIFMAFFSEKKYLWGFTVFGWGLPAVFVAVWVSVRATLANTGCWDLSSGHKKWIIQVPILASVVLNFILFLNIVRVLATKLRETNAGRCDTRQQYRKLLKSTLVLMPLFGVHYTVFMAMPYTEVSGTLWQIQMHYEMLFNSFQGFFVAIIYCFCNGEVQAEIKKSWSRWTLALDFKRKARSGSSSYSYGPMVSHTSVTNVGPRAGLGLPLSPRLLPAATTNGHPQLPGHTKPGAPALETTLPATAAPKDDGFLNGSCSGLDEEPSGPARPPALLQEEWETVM
From the text: as §2, with “After the electrophoresis, autoradiography was performed in the usual manner. As a control, excess PTHrP, was added to prevent the binding of ^125I labelled PTHrP to the receptors and the unbound PTHrP was electrophoresed by the same procedure and subjected to autoradiography.” left out

Substance: PTHrP: human 1-34PTHrP purchased from the Peptide Institute, Inc.; partial peptide of PTHrP, 34 amino acids from the N terminus
- expression of the mRNA of type II collagen [1]: no effects
- matrix synthesizing capability relative to control (incorporation of 35S-sulfuric acid into proteoglycans) ([2]; 10^−6 M PTHrP): about 3 times
- incorporation of 35S-sulfuric acid into proteoglycans ([2]; 10^−10 to 10^−6 M PTHrP, dose response): accelerated the incorporation of ^35S-sulfuric acid into proteoglycans in a dose-dependent manner
- ALP activity of the chondrocytes ([3]; 10^−7 M PTHrP added on 8th day, up to 28 days, PTHrP Treated Group, FIG. 5): suppressed
- ALP activity ([3]; 10^−8 M PTHrP, FIG. 6): suppressed almost completely
- ALP activity after PTHrP was eliminated from the culture solution ([3]; PTHrP removed on 21st day of cultivation, PTHrP Free Group, FIG. 5): restored to the level of the control group
- concentration at which PTHrP started to suppress the ALP activity ([3]; dose response, 21st day, FIG. 6): above 10^−9 M
- incorporation of 45Ca into the chondrocytes ([4]; 10^−7 M PTHrP, PTHrP Treated Group, FIG. 7): suppressed
- effect on 45Ca incorporation when PTHrP was removed ([4]; PTHrP Free Group, FIG. 7): soon disappeared
- calcification of chondrocytes ([4]; concentrations higher than 10^−8 M PTHrP, FIG. 8): completely suppressed
- DNA content of the chondrocytes [5]: not influenced at all
- expression of the mRNA of type X collagen [6]: significantly inhibited
- binding of 125I labelled PTHrP to the receptors [7]: completely prevented
